Measurements from publication PMC11855478, “Bicyclic N,S-Acetals Containing Fused Cysteine-Amide System as New Heterocyclic Class Targeting Human Farnesyltransferase (FTase-h)” (International Journal of Molecular Sciences, 2025).

Columns and labels:
SF-268 (CNS Cancer) = experiment: NCI one dose, SF-268; type: cell-based, human; settings: SF-268, 1.00E-5 Molar one dose
Description: (§1) 3.4. Cell Proliferation Assay
(§2) Selected compounds were tested on a panel of 60 human cancer cell lines at the National Cancer Institute (NCI), Germantown, MD, USA. The cytotoxicity studies were conducted using a 48 h exposure protocol using the sulfo-rhodamine B assay.

CAKI-1 (Renal Cancer) = experiment: NCI one dose, CAKI-1; type: cell-based, human; settings: CAKI-1, 1.00E-5 Molar one dose
Description: as §1, §2

SNB-75 (CNS Cancer) = experiment: NCI one dose, SNB-75; type: cell-based, human; settings: SNB-75, 1.00E-5 Molar one dose
Description: as §1, §2

CCRF-CEM (Leukemia) = experiment: NCI one dose, CCRF-CEM; type: cell-based, human; settings: 1.00E-5 Molar one dose
Description: as §1, §2

BT-549 (Breast Cancer) = experiment: NCI one dose, BT-549; type: cell-based, human; settings: BT-549, 1.00E-5 Molar one dose
Description: as §1, §2

[1] = test system: NCI/ADR-RES (Ovarian Cancer); experiment: NCI one dose, NCI/ADR-RES; type: cell-based, human; settings: 1.00E-5 Molar one dose
Description: as §1, §2

OVCAR-3 (Ovarian Cancer) = experiment: NCI one dose, OVCAR-3; type: cell-based, human; settings: OVCAR-3, 1.00E-5 Molar one dose
Description: as §1, §2

[2] = test system: NCI-H460 (Non-Small Cell Lung Cancer); experiment: NCI one dose, NCI-H460; type: cell-based, human; settings: NCI-H460, 1.00E-5 Molar one dose
Description: as §1, §2

U251 (CNS Cancer) = experiment: NCI one dose, U251; type: cell-based, human; settings: U251, 1.00E-5 Molar one dose
Description: as §1, §2

DU-145 (Prostate Cancer) = experiment: NCI one dose, DU-145; type: cell-based, human; settings: DU-145, 1.00E-5 Molar one dose
Description: as §1, §2

HCC-2998 (Colon Cancer) = experiment: NCI one dose, HCC-2998; type: cell-based, human; settings: HCC-2998, 1.00E-5 Molar one dose
Description: as §1, §2

RXF 393 (Renal Cancer) = experiment: NCI one dose, RXF 393; type: cell-based, human; settings: RXF 393, 1.00E-5 Molar one dose
Description: as §1, §2

K-562 leukaemia cells = experiment: NCI one dose, K-562; type: cell-based, human; settings: K-562, 1.00E-5 Molar one dose
Description: as §1, §2

[3] = test system: NCI-H23 (Non-Small Cell Lung Cancer); experiment: NCI one dose, NCI-H23; type: cell-based, human; settings: NCI-H23, 1.00E-5 Molar one dose
Description: as §1, §2

A498 (Renal Cancer) = experiment: NCI one dose, A498; type: cell-based, human; settings: A498, 1.00E-5 Molar one dose
Description: as §1, §2

SF-539 (CNS Cancer) = experiment: NCI one dose, SF-539; type: cell-based, human; settings: SF-539, 1.00E-5 Molar one dose
Description: as §1, §2

[4] = test system: panel of 60 human cancer cell lines; experiment: NCI 60 cell panel one dose screen (whole panel); type: cell-based; parameters: Delta (One Dose Mean Graph): unit not given here; settings: 1.00E-5 Molar one dose; for Range (One Dose Mean Graph): in % (unit assumed); for Mean Growth Percent: mean over tested cell lines
Description: as §1
Selected compounds were tested on a panel of 60 human cancer cell lines at the National Cancer Institute (NCI), Germantown, MD, USA. The cytotoxicity studies were conducted using a 48 h exposure protocol using the sulfo-rhodamine B assay. […]
X. NCI One Dose Mean Graph of sulfides 4a(A -J) and 4b(A-J)
The entire series of sulfides regrouping twenty synthesized FTI-candidates (4aA-J, 4bA-J) were selected by the National Cancer Institute (NCI) for evaluation of their antiproliferative activity against 60 cancer cell lines (see the followings twenty pages for full evaluation reports). […]
inhibiting 36% of the NCI-H522 cells. Such difference between IC50 on human FTase in the nanomolar range and IC50 on cancer cell growth in the micromolar range is characteristic to potent FTIs and was reported previously on different series of compounds (see for example ref erence in the references part […]
Of interest, none of the tested compounds at a high single dose (10 µM) in the full NCI 60 cell panel has shown a cytotoxic profile. […]
inhibitory potential on FTase raise good hope for further investigation of these series as agents fighting

MOLT-4 (Leukemia) = experiment: NCI one dose, MOLT-4; type: cell-based, human; settings: MOLT-4, 1.00E-5 Molar one dose
Description: as §1, §2

SK-OV-3 (Ovarian Cancer) = experiment: NCI one dose, SK-OV-3; type: cell-based, human; settings: SK-OV-3, 1.00E-5 Molar one dose
Description: as §1, §2

HCT-116 (Colon Cancer) = experiment: NCI one dose, HCT-116; type: cell-based, human; settings: HCT-116, 1.00E-5 Molar one dose
Description: as §1, §2

[5] = test system: NCI-H322M (Non-Small Cell Lung Cancer); experiment: NCI one dose, NCI-H322M; type: cell-based, human; settings: 1.00E-5 Molar one dose
Description: as §1, §2

HCT-15 (Colon Cancer) = experiment: NCI one dose, HCT-15; type: cell-based, human; settings: HCT-15, 1.00E-5 Molar one dose
Description: as §1, §2

SK-MEL-5 (Melanoma) = experiment: NCI one dose, SK-MEL-5; type: cell-based, human; settings: SK-MEL-5, 1.00E-5 Molar one dose
Description: as §1, §2

OVCAR-5 (Ovarian Cancer) = experiment: NCI one dose, OVCAR-5; type: cell-based, human; settings: OVCAR-5, 1.00E-5 Molar one dose
Description: as §1, §2

OVCAR-4 (Ovarian Cancer) = experiment: NCI one dose, OVCAR-4; type: cell-based, human; settings: OVCAR-4, 1.00E-5 Molar one dose
Description: as §1, §2

[6] = test system: A549/ATCC (Non-Small Cell Lung Cancer); experiment: NCI one dose, A549/ATCC; type: cell-based, human; settings: 1.00E-5 Molar one dose
Description: as §1, §2

SK-MEL-28 (Melanoma) = experiment: NCI one dose, SK-MEL-28; type: cell-based, human; settings: SK-MEL-28, 1.00E-5 Molar one dose
Description: as §1, §2

SF-295 (CNS Cancer) = experiment: NCI one dose, SF-295; type: cell-based, human; settings: SF-295, 1.00E-5 Molar one dose
Description: as §1, §2

SK-MEL-2 (Melanoma) = experiment: NCI one dose, SK-MEL-2; type: cell-based, human; settings: SK-MEL-2, 1.00E-5 Molar one dose
Description: as §1, §2

HT29 (Colon Cancer) = experiment: NCI one dose, HT29; type: cell-based, human; settings: HT29, 1.00E-5 Molar one dose
Description: as §1, §2

SW-620 (Colon Cancer) = experiment: NCI one dose, SW-620; type: cell-based, human; settings: SW-620, 1.00E-5 Molar one dose
Description: as §1, §2

## C[C@@]12SC[C@@H](C(=O)NCc3ccc(Cl)cc3Cl)N1C(=O)c1ccccc12 [4bH]
SF-268 (CNS Cancer)
  Growth Percent: 99.59%
CAKI-1 (Renal Cancer)
  Growth Percent: 86.12%
SNB-75 (CNS Cancer)
  Growth Percent: 99.75%
CCRF-CEM (Leukemia)
  Growth Percent: 84.65%
BT-549 (Breast Cancer)
  Growth Percent: 107.71%
[1]
  Growth Percent: 96.56%
OVCAR-3 (Ovarian Cancer)
  Growth Percent: 101.07%
[2]
  Growth Percent: 104.39%
U251 (CNS Cancer)
  Growth Percent: 90.46%
DU-145 (Prostate Cancer)
  Growth Percent: 109.42%
HCC-2998 (Colon Cancer)
  Growth Percent: 99.28%
RXF 393 (Renal Cancer)
  Growth Percent: 102.82%
K-562 leukaemia cells
  Growth Percent: 79.34%
[3]
  Growth Percent: 94.51%
A498 (Renal Cancer)
  Growth Percent: 77.10%
SF-539 (CNS Cancer)
  Growth Percent: 100.42%
[4]
  Delta (One Dose Mean Graph): 23.83
  Range (One Dose Mean Graph): 40.77
  Mean Growth Percent: 95.56%
MOLT-4 (Leukemia)
  Growth Percent: 83.18%
SK-OV-3 (Ovarian Cancer)
  Growth Percent: 99.25%
HCT-116 (Colon Cancer)
  Growth Percent: 96.09%
[5]
  Growth Percent: 92.74%
HCT-15 (Colon Cancer)
  Growth Percent: 105.31%
SK-MEL-5 (Melanoma)
  Growth Percent: 92.84%
OVCAR-5 (Ovarian Cancer)
  Growth Percent: 99.53%
OVCAR-4 (Ovarian Cancer)
  Growth Percent: 93.22%
[6]
  Growth Percent: 77.42%
SK-MEL-28 (Melanoma)
  Growth Percent: 108.92%
SF-295 (CNS Cancer)
  Growth Percent: 98.60%
SK-MEL-2 (Melanoma)
  Growth Percent: 92.79%
HT29 (Colon Cancer)
  Growth Percent: 83.74%
SW-620 (Colon Cancer)
  Growth Percent: 104.06%

## COc1cccc(CNC(=O)[C@@H]2CS[C@H]3c4ccccc4C(=O)N23)c1 [4aE]
SF-268 (CNS Cancer)
  Growth Percent: 100.53%
CAKI-1 (Renal Cancer)
  Growth Percent: 96.42%
SNB-75 (CNS Cancer)
  Growth Percent: 100.11%
CCRF-CEM (Leukemia)
  Growth Percent: 102.31%
BT-549 (Breast Cancer)
  Growth Percent: 110.89%
[1]
  Growth Percent: 106.48%
OVCAR-3 (Ovarian Cancer)
  Growth Percent: 104.00%
[2]
  Growth Percent: 113.41%
U251 (CNS Cancer)
  Growth Percent: 102.42%
DU-145 (Prostate Cancer)
  Growth Percent: 104.21%
HCC-2998 (Colon Cancer)
  Growth Percent: 98.50%
RXF 393 (Renal Cancer)
  Growth Percent: 101.84%
K-562 leukaemia cells
  Growth Percent: 85.13%
[3]
  Growth Percent: 99.84%
A498 (Renal Cancer)
  Growth Percent: 92.71%
SF-539 (CNS Cancer)
  Growth Percent: 110.14%
[4]
  Delta (One Dose Mean Graph): 27.47
  Range (One Dose Mean Graph): 39.82
  Mean Growth Percent: 101.56%
MOLT-4 (Leukemia)
  Growth Percent: 80.83%
SK-OV-3 (Ovarian Cancer)
  Growth Percent: 110.57%
HCT-116 (Colon Cancer)
  Growth Percent: 102.32%
[5]
  Growth Percent: 105.81%
HCT-15 (Colon Cancer)
  Growth Percent: 105.05%
SK-MEL-5 (Melanoma)
  Growth Percent: 106.50%
OVCAR-5 (Ovarian Cancer)
  Growth Percent: 113.91%
OVCAR-4 (Ovarian Cancer)
  Growth Percent: 112.11%
[6]
  Growth Percent: 83.51%
SK-MEL-28 (Melanoma)
  Growth Percent: 113.63%
SF-295 (CNS Cancer)
  Growth Percent: 99.74%
SK-MEL-2 (Melanoma)
  Growth Percent: 95.73%
HT29 (Colon Cancer)
  Growth Percent: 89.79%
SW-620 (Colon Cancer)
  Growth Percent: 108.22%
